In patent US10449223B2, “Use of dehydroeburicoic acid from Antrodia camphorata in the treatment or prevention of diabetes and hyperlipidemia” (priority 2016, dated 2019):

What was measured:
[1] = test system: STZ-induced diabetic mice; assay: Tissue weight, body weight and food intake in STZ-induced diabetic mice; format: in vivo, C57BL/6J mice; conditions: 28 days
[2] = test system: STZ-induced diabetic mice; assay: Histology of epididymal WAT and liver tissue in STZ-induced diabetic mice; format: in vivo, C57BL/6J mice; conditions: 28 days
Source text: Parts of EWAT and liver tissue specimens were investigated as previously described.^31,32 Microscopic images were taken using a microscope (Olympus BX51, BX51, Olympus, Tokyo, Japan).

PEPCK = assay: Semiquantitative RT-PCR, liver tissue: PEPCK mRNA; format: in vivo, C57BL/6J mice; conditions: STZ-induced diabetic mice; Metf 300 mg/kg/day oral, 28 days; relative to CON group (so in the source)
Procedure: (§1) Total RNA from liver tissue was isolated with a Trizol Reagent (Molecular Research Center, Inc., Cincinnati, Ohio) according to the manufacturer's directions. The integrity of the extracted total RNA was examined by 2% agarose gel electrophoresis, and the RNA concentration was determined by the ultraviolet (UV) light absorbency at 260 nm and 280 nm (Spectrophotometer U-2800A, Hitachi). Total RNA (1 μg) was reverse transcribed to cDNA in a reaction mixture containing buffer, and 5 μL Moloney murine leukemia virus reverse transcriptase (Epicentre, Madison, Wis., USA). The polymerase chain reaction (PCR) was performed in a final 25 μL containing 1 U Blend Taq-Plus (TOYOBO, Japan), 1 μL of the RT first-strand cDNA product, 10 μM of each forward (F) and reverse (R) primer, 75 mM Tris-HCl (pH 8.3) containing 1 mg/L Tween 20, 2.5 mM dNTP, and 2 mM MgCl2. The products were run on 2% agarose gels and stained with ethidium bromide.

G6 Pase = assay: Semiquantitative RT-PCR, liver tissue: G6 Pase mRNA; format: in vivo, C57BL/6J mice; conditions: STZ-induced diabetic mice; Metf 300 mg/kg/day oral, 28 days; relative to CON group (so in the source)
Procedure: as §1

SREBP1c = assay: Semiquantitative RT-PCR, liver tissue: SREBP1c mRNA; format: in vivo, C57BL/6J mice; conditions: STZ-induced diabetic mice; Metf 300 mg/kg/day oral, 28 days; relative to CON group (so in the source)
Procedure: as §1

DGAT2 = assay: Semiquantitative RT-PCR, liver tissue: DGAT2 mRNA; format: in vivo, C57BL/6J mice; conditions: STZ-induced diabetic mice; Metf 300 mg/kg/day oral, 28 days; relative to CON group (so in the source)
Procedure: as §1

PPARα [3] = assay: Semiquantitative RT-PCR, liver tissue: PPARα mRNA; format: in vivo, C57BL/6J mice; conditions: STZ-induced diabetic mice; Metf 300 mg/kg/day oral, 28 days
Procedure: as §1

PPARα [4] = assay: Western blotting: PPARα in liver of mice; conditions: STZ-induced diabetic mice; Metf 300 mg/kg/day oral, 28 days
Procedure: (§2) The study protocol was performed as previously described.^28 Diabetes was induced by intraperitoneal injection of streptozotocin (Sigma Chemical, St. Louis, Mo., USA) for 5 consecutive days. The dosage of STZ was 55 mg/kg (dissolved in 0.05 M cold sodium citrate buffer, pH 4.5). The normal control mice received only citrate buffer of the same volume.
(§3) During the experiment, all mice were fasted overnight, and blood was collected from the retro-orbital sinus. After dosing for 4 weeks, food was removed from the mice at night, and on the next day, the mice after 12 h of fasting were sacrificed. All of the individual tissues were collected and weighed, and parts of tissues were instantly frozen at −80° C. for later target gene analysis.
(§4) PPARα, PPARγ, and FAS proteins were performed by the liver and white adipose tissue of mice. Skeletal muscle from mice was subjected to GLUT4 expression level analysis, and the total membrane fractions were collected with buffer and determined using a described procedure. The protein contents of GLUT4, phospho-AMPK, and total AMPK were detected by Western blotting and determined as described.

FAS = assay: Western blotting: FAS in liver and adipose tissue of mice; conditions: STZ-induced diabetic mice; Metf 300 mg/kg/day oral, 28 days
Procedure: as §2, §3, §4

GLUT4 = assay: Western blotting: membrane GLUT4 in skeletal muscle of mice; conditions: STZ-induced diabetic mice; Metf 300 mg/kg/day oral, 28 days
Procedure: as §2, §3, §4

PPARγ = assay: Western blotting: PPARγ in liver and adipose tissue of mice; conditions: STZ-induced diabetic mice; Metf 300 mg/kg/day oral, 28 days
Procedure: as §2, §3, §4

AMPK = assay: Western blotting: phospho-AMPK (Thr172)/total AMPK in skeletal muscle and liver of mice; conditions: STZ-induced diabetic mice; Metf 300 mg/kg/day oral, 28 days
Procedure: as §2, §3, §4

Compound: CC(C)OC(=O)C(C)(C)Oc1ccc(C(=O)c2ccc(Cl)cc2)cc1 [Feno, fenofibrate, reference compound]
- Tissue weight: BAT ([1]; Feno 250 mg/kg/day oral): 0.319 ± 0.030 wt %
- Tissue weight: EWAT ([1]; Feno 250 mg/kg/day oral): 0.743 ± 0.059 wt %
- Tissue weight: MWAT ([1]; Feno 250 mg/kg/day oral): 0.795 ± 0.070 wt %
- Tissue weight: RWAT ([1]; Feno 250 mg/kg/day oral): 0.154 ± 0.016 wt %
- Tissue weight: Visceral fat ([1]; Feno 250 mg/kg/day oral): 0.889 ± 0.075 wt %
- average area of adipocytes in epididymal WAT ([2]; Feno 250 mg/kg/day oral): 5373.8±194.6 μm^2

Compound: CN(C)C(=N)N=C(N)N [Metf, metformin, reference compound]
- Tissue weight: EWAT ([1]; Metf 300 mg/kg/day oral): 0.956 ± 0.047 wt %
- Tissue weight: RWAT ([1]; Metf 300 mg/kg/day oral): 0.176 ± 0.023 wt %
- Tissue weight: Visceral fat ([1]; Metf 300 mg/kg/day oral): 1.132 ± 0.054 wt %
- average area of adipocytes in epididymal WAT ([2]; Metf 300 mg/kg/day oral): 5308.9±204.7 μm^2
- ballooning of hepatocyte (liver histology) ([2]; Metf 300 mg/kg/day oral): no ballooning phenomenon
- mRNA levels of PEPCK in liver (PEPCK): decreased
- mRNA levels of G6 Pase in liver (G6 Pase): decreased
- mRNA levels of SREBP1c in liver (SREBP1c): decreased
- mRNA levels of DGAT2 in liver (DGAT2): decreased
- mRNA level of PPARα in liver (PPARα [3]): increased
- expression levels of PPARα in the liver (PPARα [4]): increased
- expression levels of FAS in adipose tissue (FAS): decreased
- expression levels of FAS in the liver (FAS): decreased
- membrane expression levels of GLUT4 in skeletal muscle vs STZ group (GLUT4): greater
- expression levels of PPARγ in adipose tissue (PPARγ): decreased
- expression levels of PPARγ in the liver (PPARγ): decreased
- muscular expression levels of phospho-AMPK/total AMPK compared with the STZ group (second sentence) (AMPK): increased
